How the values were obtained:
Format in all cases: physicochemical
[1] = Liposome size homogeneity (PDI, size distribution) by dynamic light scattering; conditions: for Liposome PDI: DMPC:DOTAP liposome
Protocol: 1 mL of each of the sample of the lipid dissolution step and 1 mL of a sample obtained by simply mixing the glycolipid of Preparation Example 2-(3) with liposome were added to a cuvette, and a hydrodynamic size and distribution were analyzed using a dynamic light-scattering apparatus (Malvern instrument, ZSP nano) (Table 3, FIGS. 3 and 4). FIG. 3 is a diagram showing a liposome size distribution in a lipid-solubilization step, and FIG. 4 is a diagram showing a liposome size distribution in a step of simply mixing glycolipid with a liposome.

[2] = Liposome size by dynamic light scattering (hydrodynamic size); conditions: for Liposome size (d, nm): DMPC:DOTAP liposome
Protocol: (§1) 1 mL of each of the sample of the lipid dissolution step and 1 mL of a sample obtained by simply mixing the glycolipid of Preparation Example 2-(3) with liposome were added to a cuvette, and a hydrodynamic size was measured using a dynamic light-scattering apparatus (Malvern instrument, ZSP nano) (Table 2).

[3] = Liposome surface charge (zeta potential); conditions: for Liposome surface charge (mV): DMPC:DOTAP liposome
Protocol: as §1, with “with a” for “with”, “loaded on” for “added to”, “cuvette for measuring a surface charge (zeta potential),” for “cuvette,”, “surface charge” for “hydrodynamic size”, “4).” for “2).”

[4] = lipid dissolution step, glycolipid content 1 mol %
[5] = lipid dissolution step, glycolipid content 3 mol %
[6] = lipid dissolution step, glycolipid content 6 mol %
[7] = step of simple mixing with liposome, glycolipid content 1 mol %
[8] = step of simple mixing with liposome, glycolipid content 3 mol %
[9] = step of simple mixing with liposome, glycolipid content 6 mol %

Substance: Monophosphoryl lipid A [MPL]
- Liposome PDI [1, 4]: 0.353
- Liposome PDI [1, 5]: 0.412
- Liposome PDI [1, 6]: 0.405
- Liposome PDI [1, 7]: 0.552
- Liposome PDI [1, 8]: 0.793
- Liposome PDI [1, 9]: 0.887
- Liposome size distribution ([1]; glycolipid incorporated during lipid dissolution (encapsulated liposome), FIG. 3): not uniform
- Dispersibility of the liposome (PDI) ([1]; over glycolipid contents 6, 3, 1 mol %): increased depending on concentration
- Liposome size distribution ([1]; simple mixing of liposome with glycolipid (adsorbed liposome), FIG. 4): not uniform
- Liposome size (d, nm) ([2]; glycolipid incorporated in lipid dissolution step, glycolipid content 6 mol %): 355.4 nm
- Liposome size (d, nm) [2, 4]: 367.9 nm
- Liposome size (d, nm) [2, 5]: 309.2 nm
- Liposome size (d, nm) [2, 7]: 694.9 nm
- Liposome size (d, nm) [2, 8]: 1206.1 nm
- Liposome size (d, nm) [2, 9]: 1538.7 nm
- Change of liposome size on simple mixing with a liposome ([2]; glycolipid simply mixed with liposome): tended to increase in size
- Liposome surface charge (mV) [3, 4]: 57.0 ± 3.0 mV
- Liposome surface charge (mV) [3, 5]: 56.2 ± 0.6 mV
- Liposome surface charge (mV) [3, 6]: 23.7 ± 0.6 mV
- Liposome surface charge (mV) [3, 7]: 57.8 ± 1.6 mV
- Liposome surface charge (mV) [3, 8]: 56.9 ± 3.4 mV
- Liposome surface charge (mV) [3, 9]: 48.5 ± 1.4 mV
- Surface charge change ([3]; mixed at a high content of 6 mol %): decreased sharply
